Here are results for twelve compounds from patent publication US12565494B2, “Inhibitors of human respiratory syncytial virus and metapneumovirus” (priority 2022, dated 2026).

Where two headings read alike, the source gives them in different places.

For one assay, the system named is RSV-A2-GFP virus. In words: microbe, parasite or virus in culture. The class given is cell-based, Human Respiratory Syncytial Virus. Conditions: Calu-1 cells, RSV-A2-GFP MOI=1.2, 96 hrs, GFP-expressing cells counted. As to the method: To set up the assay, ARF vials were thawed in a 37° C. water bath and a control compound was resuspended in assay media DMEM (Dulbecco's Modified Eagle Medium) containing 2% FBS, 100 U/ml Penicillin-Streptomycin.
GFP sequence was derived from pJTI™ R4 Dest CMV N-EmGFP pA Vector (Invitrogen) and was cloned into the intergenic sequence between wild-type RSV-A2 P and M genes using standard recombineering techniques. Recombinant RSV-A2-GFP was propagated in Hep2 cells (human cells contain HeLa marker chromosomes and were derived via HeLa contamination, ATCC CCL-23) with a Multiplicity of Infection (MOI) of 0.1. Virus was harvested 3 days after infection by collecting all culture material and then freeze-thawing the mixture for 5 minutes. Working virus stocks were generated by thawing frozen viral cultures in 37° C. water bath, which were centrifuged at 218 g for 15 min at 4° C. 1/10 of 10×SPG (Biological Industries 06-3061-01-5A) were added and then mixed. The supernatant was aliquoted, frozen in liquid nitrogen, and then transferred to a −80° C. freezer for storage. Virus titer was determined by automated plaque assay in HEp-2 cells following methods described previously (Wen Z. et al.; 2019).
Calu-1 cells were purchased from ATCC (Cat #HTB-54) and were expanded in growth media (DMEM containing 10% FBS, 100 U/ml Penicillin-Streptomycin). To make ARF, cell culture media was removed and discarded and the cell layer was briefly rinsed with PBS to remove serum. 2.5 mL of TrypLE Express solution were added and cells incubated until dislodged, to which growth media was added and the cells were resuspended by gentle pipetting. Cells were counted for concentration and viability as determined by ViCell. Cells were centrifuged at RT, 300 g for 5 minutes to pellet cells. The supernatant was gently aspirated and the pellet was flicked to loosen cells. Cells were resuspended in an appropriate volume of freezing medium (DMEM containing 10% DMSO, 10% FBS, 100 U/ml Penicillin-Streptomycin) to achieve a concentration of 5×10^6 cells/mL. 1 mL aliquots of the cell suspension were transferred to freezing vials. The vials were put into an upright container in a −80° C. freezer overnight before transferring vials to liquid nitrogen for storage
Assay ready freeze-down (ARF, generation described separately) Calu-1 cells (ATCC HTB-54) were used. Compound plates were prepared by dispensing compounds dissolved in DMSO into the wells of a 384 well Corning® 3985 plate with an ECHO acoustic dispenser and compounds were tested in 10-point serial 3-fold dilution. […] To set up the assay, ARF vial(s) were thawed in a 37° C. water bath and were then resuspended into assay media (DMEM containing 2% FBS, 100 U/ml Penicillin-Streptomycin). Cells were counted using default parameters on ViCell and diluted to 20,000 cells/mL in assay media. RSV-A2-GFP virus was added to cells at 24,000 pfu/ml (MOI=1.2) and mixed by gentle inversion. 10 μL/well of 100% DMSO was dispensed as CellTiter-Glo (CTG) assay Max_E controls wells. The cells were dispensed at 50 μL/well using Bravo with 50 μL filtered tips into compound plates. Plates were covered with MicroClime lids, loaded with 7.5 mL of assay media to minimize evaporation, and were incubated at 37° C. and 5% CO2 for 96 hrs. Following incubation, distinct, GFP-expressing cells were counted using an Acumen imaging system with appropriate settings. A same-well CTG assay was performed by adding 10 μL/well reconstituted CellTiter-Glo reagent (Promega G7573) and plates were read on PerkinElmer Envision according to manufacturer's instructions. Raw data were loaded and analyzed in ActivityBase. Antiviral IC50 and cytotoxicity CC50 values were determined using a 4 parameter logistic fit based on the Levenberg-Marquardt algorithm. Model: 205-4 Parameter Logistic.

The next assay relates to hMPV-GFP virus. In words: microbe, parasite or virus in culture. The assay is classed as cell-based, Human Metapneumovirus. Conditions: VERO cells, hMPV-GFP MOI=1.25, 48 hrs, GFP-expressing cells counted. As to the method: GFP expressing rgHMPV #3 p3 was generated in Dr. Buchholz's lab (Biacchesi S. et al., J Virol. 2007 June; 81(11): 6057-6067) and propagated in VERO cells (ATCC Cat #CCL-81) with a Multiplicity of Infection (MOI) of 0.1. Virus was harvested 4 days after infection by collecting cultured material and was freeze-thaw cycled in liquid nitrogen twice. Working virus stocks were generated from thawing frozen samples in 37° C. water bath, which were centrifuged at 218 g for 15 min at 4° C. 1/10 of 10×SPG (Biological Industries 06-3061-01-5A) were added and then mixed. The supernatant was aliquoted, frozen in liquid nitrogen, and then transferred to a −80° C. freezer for storage. Virus titer was determined by performing titration test in 96-well plates and calculate approximate virus titer using GFP event/well data.
Compound plates were prepared by dispensing compounds dissolved in DMSO into wells of a 384 well Corning 3985 polystyrene flat clear bottom optical imaging microplate (202.5 nL/well) using an ECHO acoustic dispenser. Each compound was tested in 10-point serial 3-fold dilution (typical final concentrations: 40,300 nM-2 nM). […] Continuous culture of VERO cells was maintained in complete culture media (OptiMEM supplemented with 2 mM GlutaMAX™ and 100 U/ml Penicillin-Streptomycin). To set up the assay, VERO cells were trypsinized with 0.25% Trypsin-EDTA until cells were dislodged, then cells were re-suspended with 1 mL FBS. Cells were spundown at 300 g for 5 minutes and cells were washed twice with culture media and counted using default parameters on ViCell. Cells were then diluted to 100,000 cells/mL (5,000 cells/50 μL) in complete culture media+TrypLE Select (80 μL/mL). hMPV-GFP virus was added to cells at 125,000 pfu/mL (MOI=1.25) and were mixed by gentle inversion. 10 μL/well of 100% DMSO was dispensed to CellTiter-Glo (CTG) assay Max_E controls wells. Cells were dispensed at 50 μL/well using Bravo and 50 μL filtered tips into compound plates. Plates were covered with MicroClime lids and loaded with 7.5 mL of assay media to minimize evaporation. Plates were lightly shaken for 10 minutes at room temperature and then incubated at 37° C. and 5% CO2 for 48 hrs. Following incubation, distinct GFP-expressing cells were counted using an Acumen imaging system with appropriate settings. A same-well CTG assay was performed by adding 10 μL/well reconstituted CellTiter-Glo reagent (Promega G7573) and plates were read on PerkinElmer Envision according to manufacturer's instructions. Raw data were loaded and analyzed in ActivityBase. Antiviral IC50 and cytotoxicity CC50 values were determined using a 4 parameter logistic fit based on the Levenberg-Marquardt algorithm. Model: 205-4 Parameter Logistic.

[1] abbreviates: Table I Summary of Activities for RSV, read-out: RSV EC50.
The mark [2] stands for this setting: Table II Summary of Activities for hMPV, read-out: RSV EC50.
Setting [3] is: human respiratory syncytial virus, Calu-1, 96 h, read-out: RSV EC50, Table I Summary of Activities for RSV.
[4] abbreviates: read-out: RSV EC50, Table II Summary of Activities for hMPV.
Setting [5] is: read-out: RSV EC50, Table I Summary of Activities for RSV.
Setting [6] is: Vero, 48 h, read-out: RSV EC50, Table II Summary of Activities for hMPV.

The EC50 is the midpoint of the concentration-response curve.

Turning to `Cn1nc(-c2cscn2)nc1C(=O)N1C[C@@H]2[C@H](C1)[C@H]2Oc1cc(C(C)(C)N)cc(-c2ccc(F)cc2)n1` [Example 30, ((1R,5S,6s)-6-((4-(2-aminopropan-2-yl)-6-(4-fluorophenyl)pyridin-2-yl)oxy)-3-azabicyclo[3.1.0]hexan-3-yl)(1-methyl-3-(thiazol-4-yl)-1H-1,2,4-triazol-5-yl)methanone], the concentration giving a half-maximal response (EC50) is less than 10 nM with RSV-A2-GFP virus (setting [1]) and more than 100 nM with hMPV-GFP virus (setting [2]).

With `Cc1cnc(-c2nc(C)c(C(=O)N3C[C@@H]4[C@H](C3)[C@H]4Oc3cc(C(C)(C)N)cc(-c4ccc(F)cc4)n3)s2)o1` [Example 4, ((1R,5S,6s)-6-((4-(2-aminopropan-2-yl)-6-(4-fluorophenyl)pyridin-2-yl)oxy)-3-azabicyclo[3.1.0]hexan-3-yl)(4-methyl-2-(5-methyloxazol-2-yl)thiazol-5-yl)methanone], the EC50 in the assay with RSV-A2-GFP virus (setting [1]) is less than 10 nM; in the assay on hMPV-GFP virus (setting [2]), 10 to 100 nM.

In the case of `CC(C)(N)c1cc(O[C@H]2[C@@H]3CN(C(=O)c4nc(-c5cscn5)ns4)C[C@@H]32)nc(-c2ccc(F)cc2)c1` [Example 27, ((1R,5S,6s)-6-((4-(2-aminopropan-2-yl)-6-(4-fluorophenyl)pyridin-2-yl)oxy)-3-azabicyclo[3.1.0]hexan-3-yl)(3-(thiazol-4-yl)-1,2,4-thiadiazol-5-yl)methanone], the figures for the EC50 in the assay on RSV-A2-GFP virus (setting [1]) and in the assay on hMPV-GFP virus (setting [2]) were 10 to 100 nM and more than 100 nM, respectively.

`Cc1nc(-c2nccs2)sc1C(=O)N1C[C@@H]2[C@H](C1)[C@H]2Oc1cc(C(C)(C)N)cc(-c2ccc(F)cc2)n1` [Example 6, ((1R,5S,6s)-6-((4-(2-aminopropan-2-yl)-6-(4-fluorophenyl)pyridin-2-yl)oxy)-3-azabicyclo[3.1.0]hexan-3-yl)(4-methyl-[2,2′-bithiazol]-5-yl)methanone]: the half-maximal effective concentration (EC50) is less than 10 nM in the assay with RSV-A2-GFP virus (setting [1]) and more than 100 nM with hMPV-GFP virus (setting [2]).

For the compound `Cc1nc(-c2ccon2)sc1C(=O)N1C[C@@H]2[C@H](C1)[C@H]2Oc1cc(C(C)(C)N)cc(-c2ccc(F)cc2F)n1` [Example 32, ((1R,5S,6s)-6-((4-(2-aminopropan-2-yl)-6-(2,4-difluorophenyl)pyridin-2-yl)oxy)-3-azabicyclo[3.1.0]hexan-3-yl)(2-(isoxazol-3-yl)-4-methylthiazol-5-yl)methanone], the EC50 is less than 10 nM in the assay with RSV-A2-GFP virus (setting [1]) and more than 100 nM with hMPV-GFP virus (setting [2]).

Turning to `Cn1nc(-c2cscn2)cc1C(=O)N1C[C@@H]2[C@H](C1)[C@H]2Oc1cc(C2(C)CCN2)cc(-c2ccc(F)cc2)n1` (single isomer, unassigned; enantiomer 1) [Example 55A], the figures for the 50% effective concentration (EC50) with RSV-A2-GFP virus (setting [3]) and in the assay with hMPV-GFP virus (setting [4]) were less than 10 nM and 10 to 100 nM, respectively.

In the case of `Cn1nc(-c2cscn2)cc1C(=O)N1C[C@@H]2[C@H](C1)[C@H]2Oc1cc(C(C)(C)N)cc(C2CCC(C)(C)CC2O)n1` (single isomer, unassigned; enantiomer 4) [Example 66D], the EC50 is 10 to 100 nM with RSV-A2-GFP virus (setting [5]) and more than 100 nM in the assay with hMPV-GFP virus (setting [4]).

Consider `Cc1nc(-c2ccco2)sc1C(=O)N1C[C@@H]2[C@H](C1)[C@H]2Oc1cc(C(C)(C)N)cc(-c2ccc(F)cc2)n1` [Example 13, ((1R,5S,6s)-6-((4-(2-aminopropan-2-yl)-6-(4-fluorophenyl)pyridin-2-yl)oxy)-3-azabicyclo[3.1.0]hexan-3-yl)(2-(furan-2-yl)-4-methylthiazol-5-yl)methanone], for which the results for the EC50 with RSV-A2-GFP virus (setting [1]) and in the assay with hMPV-GFP virus (setting [2]) were less than 10 nM and 10 to 100 nM, respectively.

Turning to `Cn1nc(-c2ccon2)cc1C(=O)N1C[C@@H]2[C@H](C1)[C@H]2Oc1cc(C(C)(C)N)cc(N2CCC(C(F)(F)F)CC2)n1` [Example 64, ((1R,5S,6s)-6-((4-(2-aminopropan-2-yl)-6-(4-(trifluoromethyl)piperidin-1-yl)pyridin-2-yl)oxy)-3-azabicyclo[3.1.0]hexan-3-yl)(3-(isoxazol-3-yl)-1-methyl-1H-pyrazol-5-yl)methanone], the values for the 50% effective concentration (EC50) in the assay with RSV-A2-GFP virus (setting [3]) and with hMPV-GFP virus (setting [6]) were less than 10 nM and more than 100 nM, respectively.

As to `Cn1nc(-c2cscn2)cc1C(=O)N1C[C@@H]2[C@H](C1)[C@H]2Oc1cc(C(C)(C)N)cc(-c2ccc(F)cc2)n1` [Example 18, ((1R,5S,6s)-6-((4-(2-aminopropan-2-yl)-6-(4-fluorophenyl)pyridin-2-yl)oxy)-3-azabicyclo[3.1.0]hexan-3-yl)(1-methyl-3-(thiazol-4-yl)-1H-pyrazol-5-yl)methanone], the EC50 with RSV-A2-GFP virus (setting [3]) was less than 10 nM; in the assay with hMPV-GFP virus (setting [6]), 10 to 100 nM.

Regarding `CC(C)(N)c1cc(O[C@H]2[C@@H]3CN(C(=O)c4sc(-c5cscn5)nc4C4CC4)C[C@@H]32)nc(-c2ccc(F)cc2)c1` [Example 8, ((1R,5S,6s)-6-((4-(2-aminopropan-2-yl)-6-(4-fluorophenyl)pyridin-2-yl)oxy)-3-azabicyclo[3.1.0]hexan-3-yl)(4-cyclopropyl-[2,4′-bithiazol]-5-yl)methanone], the 50% effective concentration (EC50) in the assay with RSV-A2-GFP virus (setting [1]) is less than 10 nM; in the assay with hMPV-GFP virus (setting [2]), 10 to 100 nM.

Take `Cn1nc(-c2cscn2)cc1C(=O)N1C[C@@H]2[C@H](C1)[C@H]2Oc1cc(C2(C)CNC2=O)cc(-c2ccc(F)cc2)n1` (single isomer, unassigned; ent-3) [Example 50B]: the results for the 50% effective concentration (EC50) with RSV-A2-GFP virus (setting [5]) and in the assay with hMPV-GFP virus (setting [4]) were less than 10 nM and more than 100 nM, respectively.
